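Five concentrations, 48 hours, 96-well plates. At the GI50, growth is halved. TGI denotes the concentration required for complete inhibition of growth.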
Legend:
Assay in all cases: growth of human tumour cells (NCI), 48 h
[1] = tested on: UO-31 renal
[2] = tested on: MDA-MB-435
[3] = tested on: M14 melanoma
[4] = tested on: 786-0 renal
[5] = tested on: MALME-3M melanoma
[6] = tested on: IGROV1 ovarian
[7] = tested on: NCI/ADR-RES ovarian
[8] = tested on: RXF 393 renal
[9] = tested on: A549 NSCLC
[10] = tested on: HCC-2998 colon
[11] = tested on: SN12C renal
[12] = tested on: NCI-H226 lung
[13] = tested on: HCT-15 colon
[14] = tested on: K-562 leukemia
[15] = tested on: SR leukemia
[16] = tested on: HOP-62 NSCLC
[17] = tested on: OVCAR-8 ovarian
[18] = tested on: NCI-H460 lung
[19] = tested on: HL-60(TB) leukemia
[20] = tested on: CCRF-CEM leukemia
[21] = tested on: MOLT-4 leukemia
[22] = tested on: HOP-92 NSCLC
[23] = tested on: T-47D breast
[24] = tested on: ACHN renal
[25] = tested on: DU-145 prostate
[26] = tested on: SF-295 CNS
[27] = tested on: LOX IMVI melanoma
[28] = tested on: CAKI-1 renal
[29] = tested on: U251 CNS
[30] = tested on: SK-OV-3 ovarian
[31] = tested on: RPMI-8226 leukemia
[32] = tested on: MCF7 breast
[33] = tested on: SW-620 colon
[34] = tested on: OVCAR-4 ovarian
[35] = tested on: PC-3 prostate
[36] = tested on: SF-539 CNS
[37] = tested on: MDA-N
[38] = tested on: SNB-75 CNS
[39] = tested on: HS 578T breast
[40] = tested on: MDA-MB-231 breast
[41] = tested on: SK-MEL-2 melanoma
[42] = tested on: SF-268 CNS
[43] = tested on: SK-MEL-28 melanoma
[44] = tested on: SK-MEL-5 melanoma
[45] = tested on: UACC-62 melanoma
[46] = tested on: HT29 colon
[47] = tested on: TK-10 renal
[48] = tested on: COLO 205 colon
[49] = tested on: NCI-H23 lung
[50] = tested on: HCT-116 colon
[51] = tested on: UACC-257 melanoma
[52] = tested on: NCI-H522 lung
[53] = tested on: KM12 colon
[54] = tested on: SNB-19 CNS
[55] = tested on: OVCAR-5 ovarian
[56] = tested on: OVCAR-3 ovarian
[57] = tested on: A498 renal
[58] = tested on: BT-549 breast
[59] = tested on: EKVX NSCLC

Cc1cn(C2C=CC(COP(=O)(OCC3=CC(=O)c4ccccc4C3=O)N(C)CCCCCl)O2)c(=O)[nH]c1=O (configuration not stated)
TGI [1]: 25.4 µM | TGI [2]: 3.35 µM | TGI [3]: 2.84 µM | TGI [4]: 25.3 µM | TGI [5]: 0.982 µM | TGI [6]: 22.4 µM | TGI [7]: 36.2 µM | TGI [8]: 15.8 µM | TGI [9]: 2.97 µM | TGI [10]: 4.42 µM | TGI [11]: 23.9 µM | TGI [12]: 25 µM | TGI [13]: 20.9 µM | TGI [14]: 21.1 µM | TGI [15]: 2.05 µM | TGI [16]: 23.9 µM | TGI [17]: 26.6 µM | TGI [18]: 11.2 µM | TGI [19]: 4.41 µM | TGI [20]: 11.9 µM | TGI [21]: 0.769 µM | TGI [22]: 20.9 µM | TGI [23]: 9.26 µM | TGI [24]: 26.4 µM | TGI [25]: 3.06 µM | TGI [26]: 11.3 µM | TGI [27]: 8.66 µM | TGI [28]: 25.9 µM | TGI [29]: 17.7 µM | TGI [30]: 23 µM | TGI [31]: 20.8 µM | TGI [32]: 20.5 µM | TGI [33]: 29.3 µM | TGI [34]: 23.2 µM | TGI [35]: 24.5 µM | TGI [36]: 25.8 µM | TGI [37]: 4.22 µM | TGI [38]: 11.9 µM | TGI [39]: 18.6 µM | TGI [40]: 25.5 µM | TGI [41]: 27.2 µM | TGI [42]: 24.4 µM | TGI [43]: 18.2 µM | TGI [44]: 2.28 µM | TGI [45]: 14.3 µM | TGI [46]: 29.4 µM | TGI [47]: 36.5 µM | TGI [48]: 10.9 µM | TGI [49]: 6.49 µM | TGI [50]: 26.9 µM | TGI [51]: 13.9 µM | TGI [52]: 29.4 µM | TGI [53]: 28.7 µM | TGI [54]: 25.6 µM | TGI [55]: 27.1 µM | TGI [56]: 19.1 µM

COc1ccc(NC(=O)Nc2n[nH]c3ccccc23)cc1
GI50 [1]: > 100 µM | TGI [1]: > 100 µM | GI50 [2]: > 100 µM | TGI [2]: > 100 µM | GI50 [3]: > 100 µM | TGI [3]: > 100 µM | GI50 [4]: > 100 µM | TGI [4]: > 100 µM | GI50 [5]: > 100 µM | TGI [5]: > 100 µM | GI50 [57]: > 100 µM | TGI [57]: > 100 µM | GI50 [6]: > 100 µM | TGI [6]: > 100 µM | GI50 [7]: > 100 µM | TGI [7]: > 100 µM | GI50 [8]: > 100 µM | TGI [8]: > 100 µM | GI50 [9]: > 100 µM | TGI [9]: > 100 µM | GI50 [10]: > 100 µM | TGI [10]: > 100 µM | GI50 [11]: > 100 µM | TGI [11]: > 100 µM | GI50 [12]: > 100 µM | TGI [12]: > 100 µM | GI50 [13]: > 100 µM | TGI [13]: > 100 µM | GI50 [14]: > 100 µM | TGI [14]: > 100 µM | GI50 [15]: > 100 µM | TGI [15]: > 100 µM | GI50 [16]: > 100 µM | TGI [16]: > 100 µM | GI50 [17]: > 100 µM | TGI [17]: > 100 µM | GI50 [18]: > 100 µM | TGI [18]: > 100 µM | GI50 [19]: > 100 µM | TGI [19]: > 100 µM | GI50 [20]: 5.96 µM | TGI [20]: > 100 µM | GI50 [21]: > 100 µM | TGI [21]: > 100 µM | GI50 [22]: > 100 µM | TGI [22]: > 100 µM | GI50 [23]: > 100 µM | TGI [23]: > 100 µM | GI50 [24]: > 100 µM | TGI [24]: > 100 µM | GI50 [25]: > 100 µM | TGI [25]: > 100 µM | GI50 [26]: > 100 µM | TGI [26]: > 100 µM | GI50 [27]: > 100 µM | TGI [27]: > 100 µM | GI50 [28]: > 100 µM | TGI [28]: > 100 µM | GI50 [29]: > 100 µM | TGI [29]: > 100 µM | GI50 [30]: > 100 µM | TGI [30]: > 100 µM | GI50 [31]: > 100 µM | TGI [31]: > 100 µM | GI50 [32]: > 100 µM | TGI [32]: > 100 µM | GI50 [33]: > 100 µM | TGI [33]: > 100 µM | GI50 [34]: > 100 µM | TGI [34]: > 100 µM | GI50 [35]: > 100 µM | TGI [35]: > 100 µM | GI50 [36]: > 100 µM | TGI [36]: > 100 µM | GI50 [38]: > 100 µM | TGI [38]: > 100 µM | GI50 [39]: > 100 µM | TGI [39]: > 100 µM | GI50 [40]: > 100 µM | TGI [40]: > 100 µM | GI50 [41]: > 100 µM | TGI [41]: > 100 µM | GI50 [42]: > 100 µM | TGI [42]: > 100 µM | GI50 [43]: > 100 µM | TGI [43]: > 100 µM | GI50 [58]: > 100 µM | TGI [58]: > 100 µM | GI50 [44]: > 100 µM | TGI [44]: > 100 µM | GI50 [45]: > 100 µM | TGI [45]: > 100 µM | GI50 [46]: > 100 µM | TGI [46]: > 100 µM | GI50 [47]: > 100 µM | TGI [47]: > 100 µM | GI50 [48]: > 100 µM | TGI [48]: > 100 µM | GI50 [49]: > 100 µM | TGI [49]: > 100 µM | GI50 [50]: > 100 µM | TGI [50]: > 100 µM | GI50 [51]: > 100 µM | TGI [51]: > 100 µM | GI50 [52]: > 100 µM | TGI [52]: > 100 µM | GI50 [53]: > 100 µM | TGI [53]: > 100 µM | GI50 [59]: > 100 µM | TGI [59]: > 100 µM | GI50 [54]: > 100 µM | TGI [54]: > 100 µM | GI50 [55]: > 100 µM | TGI [55]: > 100 µM | GI50 [56]: > 100 µM | TGI [56]: > 100 µM
